{"source": "patent US7235588B2", "about": "“Method for reducing hypertension and heart failure” (The Research Foundation of State University of New York, priority 2001, dated 2007)", "key": {"rat hearts [1]": {"test_system": "rat hearts", "experiment": "Myocardial infarct size (triphenyl tetrazolium staining) after ischemia/reperfusion", "conditions": "FIG. 4B", "description": "To gain insight into the physiological basis for cardioprotection afforded by tyrphostin AG490, the extent of cardiomyocyte infarct size and apoptosis were measured. On termination of treatment with tyrphostin AG490, hearts were immersed in 1% triphenyl tetrazolium solution in phosphate buffer (Na2HPO4 88 mmol/l, NaH2PO4 1.8 mmol/l) for 10 min. at 37° C. and stored at −70° C. for processing. Frozen hearts (ventricular tissue) were sliced transversely in a plane perpendicular to the apicobasal axis into 0.5 mm thick sections, blotted dry, placed between microscope slides, and scanned on a Hewlett-Packard Scanjet 5 p single-pass flatbed scanner. With the NIH 1.61 image processing software, each digitized image was subjected to equivalent degrees of background subtraction, brightness, and contrast enhancement for improved clarity and distinctness. Risk (equivalent to total left ventricular muscle mass) and infarct zones of each slice were traced, and the respective areas were calculated in terms of pixels. The weight of each slice was then recorded to facilitate the expression of total and infarct masses of each slice in grams. The risk and infarct volumes of each slice in cubic centimeters were then calculated on the basis of slice weight to correct for any errors due to nonuniformity of heart slice thickness. […]"}, "rat hearts [2]": {"test_system": "rat hearts", "experiment": "Myocardial function of spontaneously beating working hearts subjected to ischemia/reperfusion"}, "[3]": {"test_system": "hearts subjected to ischemia/reperfusion", "conditions": "cited from earlier work"}, "angiotensinogen mRNA [4]": {"test_system": "angiotensinogen mRNA", "experiment": "Angiotensinogen mRNA in hearts subjected to ischemia/reperfusion (primer extension assay)", "design": "species or system rat", "conditions": "30 min ischemia and 120 min reperfusion", "description": "Ischemia was induced by a modified Langendorf-reperfusion method in rat hearts. Hearts from adult male rats were randomly divided into 4 groups and subjected to ischemia/reperfusion. In the ischemic group, hearts were perfused with Krebs-Henseleit buffer for 60 minutes, followed by 30 minutes of global ischemia. In the ischemic/reperfused group, hearts were perfused for 60 minutes, followed by 30 minutes of global ischemia and 120 minutes of reperfusion. Control group hearts were perfused for the same lengths of time.\nRat hearts subjected to ischemia/reperfusion were tested to determine whether activation of the renin-angiotensin system, as reflected by an increase in angiotensinogen mRNA, occurs in ischemic injury. The level of angiotensinogen mRNA was analyzed by primer extension assay using gene-specific DNA probes. A DNA primer spanning the complementary sequence of the rat angiotensinogen cDNA between nucleotides 302 and 279 (5′-[…]-3′) SEQ ID NO: 1 was end-labeled and used to evaluate the expression of angiotensinogen mRNA in total RNA isolated from the rat heart. The primer extension protocol was performed according to instructions provided by the supplier (Progema). Rat GAPDH cDNA specific primer was used as control. There was a marked increase in mRNA level after 30 minutes of ischemia and 120 minutes of reperfusion (FIG. 5A). […]"}, "cardiomyocytes": {"test_system": "cardiomyocytes", "experiment": "Cardiomyocyte apoptosis by TUNEL after ischemia/reperfusion", "design": "species or system rat", "conditions": "FIG. 4C", "description": "Immunohistochemical detection of apoptotic cells was carried out by use of terminal dUTP nick end-labeling (TUNEL), in which residues of digoxigenin-labeled dUTP are catalytically incorporated into the DNA by terminal deoxynucleotidyl transferase II. The cells were incubated with a sheep polyclonal anti-digoxigenin antibody followed by a FITC-conjugated rabbit anti-sheep IgG as a secondary antibody. The heart sections were washed in PBS 3 times, blocked with normal rabbit serum, and incubated with mouse monoclonal antibody recognizing cardiac myosin heavy chain (Biogenesis Ltd) followed by staining with TRIRC-conjugated rabbit anti-mouse IgG ([…] dilution, Dalco, Japan). The fluorescence staining was viewed with a confocal laser microscope (Olympus Co). The apoptoic cells were counted and expressed as percentage of total myocyte population. Ischemia was induced by a modified Langendorf-reperfusion method in rat hearts. Hearts from adult male rats were randomly divided into 4 groups and subjected to ischemia/reperfusion. In the ischemic group, hearts were perfused with Krebs-Henseleit buffer for 60 minutes, followed by 30 minutes of global ischemia. In the ischemic/reperfused group, hearts were perfused for 60 minutes, followed by 30 minutes of global ischemia and 120 minutes of reperfusion. Control group hearts were perfused for the same lengths of time."}, "angiotensinogen mRNA [5]": {"test_system": "angiotensinogen mRNA", "experiment": "Angiotensinogen mRNA expression in vivo in rat liver (northern blot)", "conditions": "daily treatment to achieve 5 μM systemically, 10 days", "description": "Tyrphostin AG490 was administered to rats in vivo. A subcutaneous pump was surgically placed with a catheter extended intraperitoneally. Rats were daily treated with tyrphostin AG490 to achieve a 5 μM concentration systemically. After 10 days, the animals were euthanized using approved animal protocols and the liver collected to isolate RNA. The isolated RNA was used to perform a northern blot and the nitrocellulose membrane was probed with the rat angiotensinogen cDNA. Loading control was performed using GAPDH as probe."}, "[6]": {"conditions": "first 60 min of reperfusion, treated groups (5 and 50 μmol/L)"}}, "note": "“Also recorded” adds a separate entry of the source."}
{"smiles": "N#C/C(=C\\c1ccc(O)c(O)c1)C(=O)NCc1ccccc1", "note": "[tyrphostin AG490]", "values": [{"measurement": "myocardial infarct size", "setting": "rat hearts [1]", "value": "reduced myocardial infarct size; also recorded: reduction of infarct size"}, {"measurement": "cardioprotection (developed pressure and dP/dt)", "setting": "rat hearts [2]; 5 μmol/L", "value": "able to provide cardioprotection to approximately the same degree"}, {"measurement": "Developed pressure", "setting": "rat hearts [2]; 5 μmol/L, 60 min of reperfusion (R-60)", "value": "86±2.5", "unit": "mm Hg"}, {"measurement": "Developed pressure", "setting": "rat hearts [2]; 5 μmol/L, 90 min of reperfusion (R-90)", "value": "69±5", "unit": "mm HG"}, {"measurement": "Developed pressure", "setting": "rat hearts [2]; 5 μmol/L, 120 min of reperfusion (R-120)", "value": "60.85±4", "unit": "mm Hg"}, {"measurement": "dp/dt", "setting": "rat hearts [2]; 5 μmol/L, R-30", "value": "3818±49.46"}, {"measurement": "dp/dt", "setting": "rat hearts [2]; 5 μmol/L, R-60", "value": "3362±53.14"}, {"measurement": "dp/dt", "setting": "rat hearts [2]; 5 μmol/L, R-90", "value": "2840±88"}, {"measurement": "dp/dt", "setting": "rat hearts [2]; 5 μmol/L, R-120", "value": "2552±58.9"}, {"measurement": "baseline value for dP/dt", "setting": "rat hearts [2]; 50 μmol/L", "value": "increased slightly"}, {"measurement": "cardioprotection (developed pressure and dP/dt)", "setting": "rat hearts [2]; 50 μmol/L", "value": "able to provide cardioprotection to approximately the same degree"}, {"measurement": "Developed pressure", "setting": "rat hearts [2]; 50 μmol/L, 60 min of reperfusion (R-60)", "value": "86±4.8", "unit": "mm Hg"}, {"measurement": "Developed pressure", "setting": "rat hearts [2]; 50 μmol/L, 90 min of reperfusion (R-90)", "value": "72.7±5.7", "unit": "mm HG"}, {"measurement": "Developed pressure", "setting": "rat hearts [2]; 50 μmol/L, 120 min of reperfusion (R-120)", "value": "53.75±7", "unit": "mm Hg"}, {"measurement": "dp/dt", "setting": "rat hearts [2]; 50 μmol/L, R-30", "value": "4156±238"}, {"measurement": "dp/dt", "setting": "rat hearts [2]; 50 μmol/L, R-60", "value": "3840±140"}, {"measurement": "dp/dt", "setting": "rat hearts [2]; 50 μmol/L, R-90", "value": "3194.7±228"}, {"measurement": "dp/dt", "setting": "rat hearts [2]; 50 μmol/L, R-120", "value": "2626±269"}, {"measurement": "dP/dt and developed pressure versus untreated group", "setting": "rat hearts [2]; all treated groups (5 and 50 μmol/L)", "value": "significantly higher"}, {"measurement": "Developed pressure", "setting": "rat hearts [2]; [6]", "value": "minimally lowered"}, {"measurement": "dP/dt value", "setting": "rat hearts [2]; [6]", "value": "not lowered"}, {"measurement": "cardioprotection / myocardial damage due to ischemia", "setting": "[3]", "value": "afford cardioprotection"}, {"measurement": "angiotensinogen mRNA level", "setting": "angiotensinogen mRNA [4]", "value": "inhibited the stimulation of the angiotensinogen mRNA level; also recorded: inhibition of angiotensinogen mRNA"}, {"measurement": "apoptotic cell death of cardiomyocytes", "setting": "cardiomyocytes", "value": "marked lowering of apoptotic cell death; also recorded: reduction of apoptosis of cardiomyocytes"}, {"measurement": "expression of angiotensinogen gene product mRNA", "setting": "angiotensinogen mRNA [5]", "value": "abolished the expression of angiotensinogen gene product mRNA; also recorded: attenuation of angiotensinogen mRNA expression"}]}
